Measured values: PubChem BioAssay AID2060356 (Molecular Pharmacology Branch, DTP, NCI, 2025)
Several values for one entry are separate records, joined by “and”; a condition that tells them apart may be missing. Identical values can stand only once.

Test system: PDC tumor spheroids with HUVEC/MSC, viability
Assay: Anticancer human tumor 439559-082-T-J2-PDC patient-derived colon adenocarcinoma cell line growth inhibition [TAK]
Conditions: for viability, T/C: stronger effect = lower value; active means viability on the fitted dose curve at most 10% of control; inactive means the rest
How it was run: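 Tumor cells were grown as spheroids with HUVEC and hMSC (60:25:15) and treated with targeted agents combined with TAK-243 or ipatasertib. Drugs were tested in half-log steps down from near the clinical Cmax, or from 10 microM where Cmax was unknown.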
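Further: spheroids exposed to drugs for seven days before readout.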

CC(=O)Nc1cccc(-n2c(=O)n(C3CC3)c(=O)c3c(Nc4ccc(I)cc4F)n(C)c(=O)c(C)c32)c1
> 0.03 µM: IC50 (curve of compound)
inactive: viability, T/C (compound 94.9 pM) 105% and 111% | viability, T/C (compound 0.0003 µM) 101% and 94.9% | viability, T/C (compound 0.000949 µM) 91% and 88.8% | viability, T/C (compound 0.003 µM) 73.6% and 75.2% | viability, T/C (compound 0.00949 µM) 72.6% and 75.3% | viability, T/C (compound 0.03 µM) 63.9% and 60.4%

COC1CC2CCC(C)C(O)(O2)C(=O)C(=O)N2CCCCC2C(=O)OC(C(C)CC2CCC(OCCO)C(OC)C2)CC(=O)C(C)C=C(C)C(O)C(OC)C(=O)C(C)CC(C)C=CC=CC=C1C (stereo unspecified) + CC(C)NCC(C(=O)N1CCN(c2ncnc3c2C(C)CC3O)CC1)c1ccc(Cl)cc1
> 0.1 µM: IC50 (curve of first compound, second compound 0.3 µM) | IC50 (curve of first compound, second compound 0.949 µM) | IC50 (curve of first compound, second compound 3 µM) | IC50 (curve of first compound, second compound 9.49 µM) | IC50 (curve of first compound, second compound 30 µM)
inactive: viability, T/C (second compound 0.3 µM, first compound 0.000316 µM) 110% | viability, T/C (second compound 0.3 µM, first compound 0.001 µM) 97.1% | viability, T/C (second compound 0.3 µM, first compound 0.00316 µM) 81.7% | viability, T/C (second compound 0.3 µM, first compound 0.01 µM) 90.4% | viability, T/C (second compound 0.3 µM, first compound 0.0316 µM) 83.7% | viability, T/C (second compound 0.3 µM, first compound 0.1 µM) 82% | viability, T/C (second compound 0.949 µM, first compound 0.000316 µM) 103% | viability, T/C (second compound 0.949 µM, first compound 0.001 µM) 88.6% | viability, T/C (second compound 0.949 µM, first compound 0.00316 µM) 85.9% | viability, T/C (second compound 0.949 µM, first compound 0.01 µM) 87.4% | viability, T/C (second compound 0.949 µM, first compound 0.0316 µM) 87.4% | viability, T/C (second compound 0.949 µM, first compound 0.1 µM) 79.8% | viability, T/C (second compound 3 µM, first compound 0.000316 µM) 97.4% | viability, T/C (second compound 3 µM, first compound 0.001 µM) 101% | viability, T/C (second compound 3 µM, first compound 0.00316 µM) 87.6% | viability, T/C (second compound 3 µM, first compound 0.01 µM) 77.9% | viability, T/C (second compound 3 µM, first compound 0.0316 µM) 81.5% | viability, T/C (second compound 3 µM, first compound 0.1 µM) 77.3% | viability, T/C (second compound 9.49 µM, first compound 0.000316 µM) 91.4% | viability, T/C (second compound 9.49 µM, first compound 0.001 µM) 88.6% | viability, T/C (second compound 9.49 µM, first compound 0.00316 µM) 81.3% | viability, T/C (second compound 9.49 µM, first compound 0.01 µM) 73.7% | viability, T/C (second compound 9.49 µM, first compound 0.0316 µM) 75.2% | viability, T/C (second compound 9.49 µM, first compound 0.1 µM) 76.8% | viability, T/C (second compound 30 µM, first compound 0.000316 µM) 93.1% | viability, T/C (second compound 30 µM, first compound 0.001 µM) 91.2% | viability, T/C (second compound 30 µM, first compound 0.00316 µM) 82.8% | viability, T/C (second compound 30 µM, first compound 0.01 µM) 77.7% | viability, T/C (second compound 30 µM, first compound 0.0316 µM) 79.1% | viability, T/C (second compound 30 µM, first compound 0.1 µM) 72.7%

COc1c(OCCCN2CCOCC2)ccc2c3n(c(=NC(=O)c4cnc(N)nc4)nc12)CCN3
> 1 µM: IC50 (curve of compound)
inactive: viability, T/C (compound 0.00316 µM) 103% and 116% | viability, T/C (compound 0.01 µM) 91% and 95.7% | viability, T/C (compound 0.0316 µM) 82.8% and 82.9% | viability, T/C (compound 0.1 µM) 75.8% and 72.9% | viability, T/C (compound 0.316 µM) 68.9% and 70.3% | viability, T/C (compound 1 µM) 66% and 72.5%

CC(C)(C)c1nc(-c2cccc(NS(=O)(=O)c3c(F)cccc3F)c2F)c(-c2ccnc(N)n2)s1
inactive: viability, T/C (compound 0.0316 µM) 114% and 120% | viability, T/C (compound 0.1 µM) 109% | viability, T/C (compound 0.316 µM) 118% and 108% | viability, T/C (compound 1 µM) 108% and 104% | viability, T/C (compound 3.16 µM) 120% and 102% | viability, T/C (compound 10 µM) 101% and 98%
> 10 µM: IC50 (curve of compound)
